Source: patent US5153175A, “Method of inducing sleep with GHRH complementary peptide compositions” (University of Tennesee Research Corporation, priority 1989, dated 1992)
Blank lines part the entries; values can stand above or below the substance they belong to. Ends that are not written are not given here.

Key:
rabbits = assay: Biological assay for sleep-promoting activity in rabbits after intracerebroventricular infusion (EEG, body movement, temperature); type: in vivo; conditions: rabbit; for time spent in SWS / time spent in rapid-eye-movement sleep: after administration, vs control
Experimental: Biological assays for sleep-promoting activity were performed on rabbits provided with chronically implanted ventricular guide tubes and four epidural screw electrodes for EEG. The animals were allowed at least one week to recover from surgery prior to their use for assays. Samples for testing were taken up in sterile artificial cerebrospinal fluid and a total of […] solution was infused intraventricularly (ICV) at the rate of 25 ul/min through a No. 26 hypodermic needle inserted through a guide tube. Following the infusion and removal of the infusion probe the animals were left undisturbed for 6-8 hours while EEG and bodily movements were recorded.
Slow wave sleep (SWS) was scored in two ways: (i) by conventional subjective scoring of the duration of SWS from polygraph records and (ii) by digital print-out of integrated mean rectified cortical slow waves (1/2-4 Hz). thus obtaining a measure of the amplitude was well as duration of delta wave EEG activity. Control animals were also assayed at the same time.
Operation and experimental procedure. Adult male New Zealand White Pasteurella-free rabbits, weighing 3-4 kg, were purchased from Myrtle's Rabbitry (Thompson Station, Tenn.). Under ketamine-xylazine (3.5-5.0 mg/kg iv) anesthesia, animals were provided with chronically implanted EEG electrodes, a glass-bead thermistor, and a cerebral ventricular guide tube (Krueger, J.M et al., Am. J. Physiol. 251 (Regulatory Integrative Comp. Physiol. 20): R591-R597, 1986; and Walter J.D. et al., Am. J. Physiol., 250 (Regulatory Integrative Comp. Physiol. 19): R96-R103, 1986). Briefly, stainless steal screws were implanted over the frontal parietal, and occipital cortex; and a small (1 mm diam) 50-k.OMEGA. thermistor (Fenwall Electronics) was placed 3 mm into the parietal cortex. Wires from Amphenol plugs (no. 223-1509) were soldered to the screws for EEG recordings and to the thermistors for brain temperature (Tbr) recordings. The ventricular guide tube was implanted 4 mm lateral to the bregma; during the implantation procedure, pressure at the tip of the infusion needle was monitored and used as an aid to locate the ventricle (See, e.g., Krueger, J.M et al., Am. J. Physiol., 246 (Regulatory Integrative Comp. Physiol. 15): R994-R999, 1984). Dental acrylic (DuzAll) was then used to insulate the leads and to secure the guide tube and EEG/thermistor plugs to the skull. A topical antibiotic (Bacitracin, Lilly) was applied to the incision, and 150,000 U of Duracillin (Lilly) were administered intramuscularly. At least 1 week was allowed for recovery.
Animals were housed in rooms on a 12:12-h light-dark cycle (0600-1800 h light) maintained at 21 ±2° C. The day before an experiment animals were brought to experimental chambers (Hotpack model 352600) for an overnight acclimation period. Each experimental chamber was also kept at 21 ±2° C. on a 12:12-h light-dark cycle. Food and water were available ad libitum at all times. At the top of the recording chamber, BRS/LVE electrical contact swivel was fixed; this allowed the rabbits free movement during recording periods. From the other end of the swivel a cable led to a Grass polygraph model 7D. Before each recording period the rabbits were connected to the recording cable for a 1-h habituation period, but data were not collected during this time.
Rabbits were then briefly taken out of the experimental cages and given the 3'-5' or 5'-3' CP (the "test substance"). [When animals received intracerebroventricular (ICV) injections, appropriate amounts of test substances (0.1-10.0 ul) were diluted to 50 ul with artificial CSF [3 mM KCL, 1.15 mM CaCl2 and 0.96 mM MgCl2 in pyrogen-free saline (PFS), […] NaCl (Abbott)]; these solutions were slowly infused over 2 min. […]

[1] = amino acids added to carboxyl terminal of N-acetyl muramyl-L-alanyl-D-isoglutamine; cited from earlier work
growth hormone release = conditions: relative potency of C-terminal deleted hGHRH fragments; cited from earlier work
lactating holstein cows = conditions: cited from earlier work
rat pituitary gland = conditions: cited from earlier work

behavior (arousable; eat, drink and groom) (rabbits; ICV): behavior was normal | character of the excess sleep (cycling through states of vigilance) (rabbits; ICV): appeared normal | temperatures of the animals (rabbits; ICV): remained normal
Substance: H-DPVNIRAFDDVL-NH2 [3'-5' CP, H-Asp-Pro-Val-Asn-Ile-Arg-Ala-Phe-Asp-Asp-Val-Leu-NH2]
capacity to enhance sleep (rabbits; ICV): have the capacity to enhance sleep | time spent in SWS (rabbits; ICV): significantly more time | time spent in rapid-eye-movement sleep (rabbits; ICV): significantly more time

behavior (arousable; eat, drink and groom) (rabbits; in vivo): behavior was normal | character of the excess sleep (cycling through states of vigilance) (rabbits; in vivo): appeared normal | temperatures of the animals (rabbits; in vivo): remained normal
Substance: H-VEPGSLFLVPLPLLPVHDFVQQFAGI-NH2 [5'-3' CP]
capacity to enhance sleep (rabbits; ICV): have the capacity to enhance sleep | time spent in SWS (rabbits; ICV): significantly more time | time spent in rapid-eye-movement sleep (rabbits; ICV): significantly more time

Substance: N-acetyl-muramyl-L-alanyl-D-isoglutamyl-L-diaminopimelyl alanine
somnogenic activity [1]: somnogenic activity is retained

Substance: hGHRH (1-19): C-terminal deleted GHRH fragment (YADAIFTNSYRKVLGQLSA; Somatoliberin; UniProt P01286 32-50, looked up, fragment)
relative GH-releasing potency (growth hormone release): No activity

Substance: hGHRH (1-24): C-terminal deleted GHRH fragment (YADAIFTNSYRKVLGQLSARKLLQ; Somatoliberin; UniProt P01286 32-55, looked up, fragment)
relative GH-releasing potency (growth hormone release): 0.02%

Substance: hGHRH (1-27): C-terminal deleted GHRH fragment (YADAIFTNSYRKVLGQLSARKLLQDIM; Somatoliberin; UniProt P01286 32-58, looked up, fragment)
relative GH-releasing potency (growth hormone release): 12%

Substance: human GHRH: Growth Hormone Releasing Hormone, hypothalamic peptide which positively regulates the synthesis and secretion of growth hormone (YADAIFTNSYRKVLGQLSARKLLQDIMSRQQGESNQERGARARL; ends and bridges not checked; UniProt P01286 32-75, looked up)
feed to milk conversion (lactating holstein cows): apparent increase | secretion of growth hormone (lactating holstein cows): increases the secretion of growth hormone consistently | GH-stimulating effect (rat pituitary gland): a GH-stimulating effect on the rat pituitary gland
